{"source": "BindingDB's records for patent US10538523", "about": "(PFIZER LIMITED, 2020)", "molecular_target": "T1, Gamma-aminobutyric acid receptor subunit alpha-2 (Homo sapiens, UniProt P18507+P47869+P47870)", "T1 sequence (P47869 whole entry)": "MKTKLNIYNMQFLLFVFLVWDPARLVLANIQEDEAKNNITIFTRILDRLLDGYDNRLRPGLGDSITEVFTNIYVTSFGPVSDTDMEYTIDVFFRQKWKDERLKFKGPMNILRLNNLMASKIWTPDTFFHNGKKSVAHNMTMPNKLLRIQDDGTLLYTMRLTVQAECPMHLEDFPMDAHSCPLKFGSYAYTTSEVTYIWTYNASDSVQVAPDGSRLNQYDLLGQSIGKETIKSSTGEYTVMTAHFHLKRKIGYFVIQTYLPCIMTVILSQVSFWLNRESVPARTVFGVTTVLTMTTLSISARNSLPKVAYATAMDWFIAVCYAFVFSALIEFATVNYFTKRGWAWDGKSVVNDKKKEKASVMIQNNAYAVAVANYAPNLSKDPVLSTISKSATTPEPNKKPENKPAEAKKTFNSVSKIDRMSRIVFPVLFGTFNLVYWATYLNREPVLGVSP", "assay": "Binding Assay", "protocol": "100 ul of radioligand and 100 ul of membrane in 50 mM Tris-HCl and 0.05% F127 with 1 ul of test compound was incubated for 2 hours to allow the reaction to achieve equilibrium, and then harvested onto filter plates, dried and counted on a TopCount NXT. The data was analysed, and the Ki values were presented as the geometric mean of at least two replicates.", "note": "pKi: −log10 of the molar value."}
{"smiles": "CCn1ncc2c(-c3ccc(F)c(-c4cc5c(cc4OC)C(=O)N(C)C5)c3)cnnc21", "note": "[US10538523, Example 3]", "values": [{"measurement": "pKi", "value": 7.93}]}
